Earlier results in patent US20100226886A1, “Combinations of MTP Inhibitors with Cholesterol Absorption Inhibitors or Interferon for Treating Hepatitis C” (priority 2007, published 2010).
“Also recorded” adds a separate entry of the source. Like-named read-outs stand apart in the source and are kept apart here.

How the values were obtained:
[1] = animal model for homozygous familial hypercholesterolemia; for example at 25 mg/day
[2] = clinical studies, 80 mg/day or greater
[3] = in vivo

O=C(NC1CCN(CCCCC2(C(=O)NCC(F)(F)F)c3ccccc3-c3ccccc32)CC1)c1ccccc1-c1ccc(C(F)(F)F)cc1 [BMS-201038, N-(2,2,2-Trifluorethyl)-9-[4-[4-[[[4′-(trifluoromethyl) [1,1′biphenyl]-2-Yl]carbonyl]amino]-1-piperidinyl]butyl]9H-fluorene-9-carboxamide]
plasma cholesterol levels [1]: effectively reduced plasma cholesterol levels in a dose dependent manner | adverse events (25 mg/day): gastrointestinal disturbances, abnormalities in liver function, and hepatic steatosis | adverse events (25 mg/day, listed as AEGR-733): gastrointestinal disorders, abnormalities in liver function and/or hepatic steatosis

Cc1cc(C)c2c3ccccc3n(Cc3ccc([C@@H](C(=O)N[C@H](CO)c4ccccc4)C4CCCC4)cc3)c2n1 [implitapide, (2S)-2-cyclopentyl-2-[4-[(2,4-dimethyl-9H-pyrido[2,3-b]indol-9-yl)methyl]phenyl]-N-[(1S)-2-hydroxy-1-phenylethyl]ethanamide]
efficacy for hypercholesterolemia [2]: therapeutically effective for hypercholesterolemia | adverse events (80 mg/day or greater (80 mg/day and 160 mg/day)): gastrointestinal disturbances, abnormalities in liver function, and hepatic steatosis; also recorded: gastrointestinal disorders, abnormalities in liver function and/or hepatic steatosis

NC(=O)c1ncn([C@@H]2O[C@H](CO)[C@@H](O)[C@H]2O)n1 [ribavirin]
increase of sustained response rate (HCV; ribavirin added to interferon or peginterferon): two- to three-fold | effect on HCV (HCV; ribavirin by itself): little effect on HCV | side effects in patients [3]: red cell haemolysis to a variable degree in almost all patients

Alpha interferon
side effects in patients [3]: multiple neuropsychiatric effects
